Test results published in publication PMC10958125 (Clinical and Translational Medicine, 2024).
Read-outs that look alike come from different tables or passages of the source.

Tests used:
[1] = human, in vivo
[2] = tested on: metastatic prostate cancer patients; set-up: method as in PMID 15470213; conditions: TAX327 trial, cited from earlier work
[3] = tested on: metastatic prostate cancer patients; set-up: method as in PMID 28753384; conditions: FIRSTANA trial, cited from earlier work
[4] = tested on: metastatic prostate cancer patients; conditions: cited from earlier work
clinical = conditions: human, in vivo, iv, 75 mg/m2
[5] = tested on: metastatic prostate cancer patients; assay type: in vivo; conditions: lycopene alone for 2 weeks from day 1, dose escalation cohort
[6] = Plasma lycopene levels (HPLC); assay type: in vivo, human
[7] = tested on: Vascular endothelial growth factor A (VEGF‐A); assay: Plasma VEGF-A, sandwich ELISA; assay type: in vivo, human
Procedure: (§1) Vascular endothelial growth factor A (VEGF‐A) was measured on Ethylenediaminetetraacetic acid plasma from subjects 1−12 of the dose escalation cohort, with a commercial sandwich ELISA kit (R&D Systems). Circulating endothelial cells (CECs) were measured with an 11‐colour flow cytometry scheme using a method adopted from a previously published protocol.[36] The definition for CECs was viable cells (alive, intact nucleus) that were positive for surface CD31 and CD34, and that were negative for haematopoietic marker CD45. Additional exploratory markers were CD105 and CD146. […] Samples were collected before the scheduled docetaxel dose for that day.
(§2) Both VEGF‐A and CEC levels were analysed using linear mixed‐effects regression models with a subject‐level random effect included to account for within‐subject correlation. Models were adjusted for the individual's baseline levels in both outcomes. All analyses and hypothesis testing were completed on the log scale and back transformed to estimate fold changes. Analysis was completed in the R environment,[37] with all tests level α = .05. The VEGF‐A levels were near‐linear over time, so time was treated as continuous, and slopes between groups were compared using Wald tests. Levels of CECs were non‐linear over time; therefore, time was treated as a fixed factor in the CEC model, with a time‐by‐dose interaction effect. Pairwise tests of differences between the CEC model‐based estimated means at each time point after zero were completed using the emmeans package.[38] As these analyses are exploratory/hypothesis generating, no multiple comparison adjustments have been made. Simple Bonferroni adjustments would lead to p‐value cutoffs of .01 (five comparisons) and .0033 (15 comparisons) for the VEGF‐A and CEC analyses, respectively.

[8] = tested on: Circulating endothelial cells (CECs); assay: Circulating endothelial cells, flow cytometry; assay type: in vivo, human
Procedure: as §1, §2

[9] = tested on: Insulin‐like growth factor binding protein 3 (IGFBP‐3); assay: Plasma IGFBP-3, sandwich ELISA; assay type: in vivo, human; conditions: all lycopene doses, any time point
Procedure: Insulin‐like growth factor binding protein 3 (IGFBP‐3) levels were measured in duplicate by sandwich ELISA assays using kits from eBioscience in subjects 1–12 of the dose escalation cohort.

[10] = tested on: metastatic prostate cancer patients
IGF‐1R = IGF‐1R (Homo sapiens, UniProt P08069); assay: Ligand-dependent phosphorylation of IGF-1R(Y1131) in PBMCs stimulated ex vivo with rhIGF-1; conditions: patients
Chain of IGF‐1R (P08069 31-1367): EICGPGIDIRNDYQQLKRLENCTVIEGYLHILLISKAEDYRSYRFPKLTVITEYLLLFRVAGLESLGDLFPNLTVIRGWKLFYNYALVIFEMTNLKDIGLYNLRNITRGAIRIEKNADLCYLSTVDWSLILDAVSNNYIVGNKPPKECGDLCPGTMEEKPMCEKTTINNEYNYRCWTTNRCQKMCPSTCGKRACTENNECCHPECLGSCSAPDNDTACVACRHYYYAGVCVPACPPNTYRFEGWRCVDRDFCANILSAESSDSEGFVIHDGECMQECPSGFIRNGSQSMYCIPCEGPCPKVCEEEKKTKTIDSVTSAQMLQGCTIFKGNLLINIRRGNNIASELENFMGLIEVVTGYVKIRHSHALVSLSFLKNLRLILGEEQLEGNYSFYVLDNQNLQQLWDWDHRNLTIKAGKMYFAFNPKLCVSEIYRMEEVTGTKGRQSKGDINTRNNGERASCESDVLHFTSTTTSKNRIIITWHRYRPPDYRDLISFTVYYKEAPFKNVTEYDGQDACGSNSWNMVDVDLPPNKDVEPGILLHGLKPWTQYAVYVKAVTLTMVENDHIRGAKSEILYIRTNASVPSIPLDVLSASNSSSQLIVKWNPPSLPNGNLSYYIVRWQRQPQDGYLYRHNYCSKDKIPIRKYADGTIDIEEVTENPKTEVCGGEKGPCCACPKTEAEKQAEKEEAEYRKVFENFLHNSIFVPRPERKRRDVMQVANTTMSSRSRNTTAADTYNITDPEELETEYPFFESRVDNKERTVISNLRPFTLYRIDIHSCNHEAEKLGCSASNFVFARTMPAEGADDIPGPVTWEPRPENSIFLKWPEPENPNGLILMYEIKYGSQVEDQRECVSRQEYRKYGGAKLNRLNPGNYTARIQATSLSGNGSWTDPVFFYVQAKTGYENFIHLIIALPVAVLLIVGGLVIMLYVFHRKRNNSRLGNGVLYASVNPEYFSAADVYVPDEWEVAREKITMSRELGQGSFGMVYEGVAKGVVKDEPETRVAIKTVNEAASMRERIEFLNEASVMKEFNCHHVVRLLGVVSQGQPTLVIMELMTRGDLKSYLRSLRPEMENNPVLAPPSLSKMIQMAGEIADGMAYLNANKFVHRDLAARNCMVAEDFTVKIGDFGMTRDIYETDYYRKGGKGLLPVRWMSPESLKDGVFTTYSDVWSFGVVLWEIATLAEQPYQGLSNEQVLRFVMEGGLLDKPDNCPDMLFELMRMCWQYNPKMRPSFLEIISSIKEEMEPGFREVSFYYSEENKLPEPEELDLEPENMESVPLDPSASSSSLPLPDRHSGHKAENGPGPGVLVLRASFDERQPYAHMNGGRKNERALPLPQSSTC
Description: Briefly, ligand‐dependent phosphorylation of the IGF‐1R was estimated using an ex vivo assay that utilised peripheral blood mononuclear cells (PBMCs). […] The cells were then lysed, and the quantity of phosphoIGF‐1R(Y1131) was estimated by an ELISA assay (Cell Signalling Technologies). Ligand‐dependent phosphorylation was defined as the ratio of pIGF‐1R(Y1131) in ligand‐stimulated PBMCs to the same parameter for unstimulated PBMCs. […] Thus, the changes in the level of ligand‐dependent phosphorylation over time were analysed by both parametric and non‐parametric methods.
Measurement of IGF-1R (Y1131) phosphorylation in PBMNCs after ex vivo ligand treatment. […] The primary analyte was phosphorylation of the IGF-1R on Y1131, measured by ELISA on lysates of PBMCs treated (or not) with recombinant human IGF-1.
Whole blood (10mL) is collected into an ACD (acid citrate-dextrose) Vacutainer®. Peripheral blood mononuclear cells are collected by density gradient centrifugation using LSM Lymphoprep® and an Accuspin® 50mL tube (Sigma). The mononuclear cells are collected, washed x 2 with serum-free RPMI1640 medium, then resuspended in 1mL of RPMI 1640 medium + 0.1% BSA. Cells are then aliquoted into 1mL microcentrifuge tubes, 0.5mL of cells per tube per condition.
Cells are incubated for 1-2hr at 37C, then rhIGF-1 (Peprotech) is added to 50-500ng/mL final concentration. Incubation continues for 15min at 37C.
Cells are then pelleted and washed with 1mL of cold RPMI 1640 medium (no protein).
The cell pellet is lysed with 120mcL of Cell Signalling® ELISA buffer containing phosphatase inhibitors and protease inhibitors. The lysate can be stored at -80C or assayed immediately.
For total protein measurement follow the BCA method (BioRad).
For IGF-1R(Y1131) ELISA (Cell Signalling® #7302) proceed per kit instructions. […]
The standard will be used as a series of 2-fold dilutions, being diluted with assay buffer from the ELISA kit. […] Results will be expressed as X units of pIGF-1R protein per amount of protein in the lysate. The protein is measured by the BCA method, as mcg/mL.

For CC(=O)O[C@@]12CO[C@@H]1C[C@H](O)[C@@]1(C)C(=O)[C@H](O)C3=C(C)[C@@H](OC(=O)[C@H](O)[C@@H](NC(=O)OC(C)(C)C)c4ccccc4)C[C@@](O)([C@@H](OC(=O)c4ccccc4)[C@H]21)C3(C)C [docetaxel], the “Plasma docetaxel C max, geometric mean” value [1] is listed as 2810 ng/mL, the “Plasma docetaxel AUClast, geometric mean” value ([1]; iv, 75 mg/m2) is listed as 2810 ng·h/mL and the “Alopecia, % any” value ([2]; any grade) is listed as 65.1%. The “Anaemia, % any” value ([2]; any grade) was 66.5%, the “Anorexia, % any” value ([2]; any grade) was 16.6% and the “Arthralgia, % any” value ([2]; any grade) was 8.1%. For the same compound, the “Cough, % any” value ([2]; any grade) was 12.3%, the “Diarrhoea, % any” value ([2]; any grade) was 31.6% and the “Dysgeusia, % any” value ([2]; any grade) was 18.4%. For the same compound, the “Dyspnoea, % any” value ([2]; any grade) was 15.1%, the “Fatigue, % any” value ([2]; any grade) was 53.3% and the “Febrile neutropenia, % any” value ([2]; any grade) was 2.7%. The “Infection, % any” value ([2]; any grade) was 32.2%, the “Nail changes, % any” value ([2]; any grade) was 29.5% and the “Nausea, % any” value ([2]; any grade) was 41%. For the same compound, the “Neutropenia, % any” value ([2]; any grade) was 40.9%, the “Peripheral oedema, % any” value ([2]; any grade) was 18.1% and the “Rash/desquamation, % any” value ([2]; any grade) was 6%. For the same compound, the “Sensory/motor neuropathy, % any” value ([2]; any grade) was 30.4%, the “Stomatitis/pharyngitis, % any” value ([2]; any grade) was 19.6% and the “Tearing, % any” value ([2]; any grade) was 9.9%. For the same compound, the “Thrombocytopenia, % any” value ([2]; any grade) was 3.4%, the “Vomiting, % any” value ([2]; any grade) was 16.9% and the “Anaemia, % grade 3+” value [2] was 4.9%. For the same compound, the “Anorexia, % grade 3+” value [2] was 1.2%, the “Arthralgia, % grade 3+” value [2] was “.6%” and the “Cough, % grade 3+” value [2] was 0%. For the same compound, the “Diarrhoea, % grade 3+” value [2] was 2.1%, the “Dysgeusia, % grade 3+” value [2] was 0% and the “Dyspnoea, % grade 3+” value [2] was 2.7%. For the same compound, the “Fatigue, % grade 3+” value [2] was 4.5%, the “Febrile neutropenia, % grade 3+” value [2] was 2.7% and the “Infection, % grade 3+” value [2] was 5.7%. The “Nausea, % grade 3+” value [2] was 2.7%, the “Neutropenia, % grade 3+” value [2] was 32% and the “Peripheral oedema, % grade 3+” value [2] was “.3%”. For the same compound, the “Sensory/motor neuropathy, % grade 3+” value [2] was 1.8%, the “Stomatitis/pharyngitis, % grade 3+” value [2] was “.9%” and the “Tearing, % grade 3+” value [2] was “.6%”. For the same compound, the “Thrombocytopenia, % grade 3+” value [2] was “.6%”, the “Vomiting, % grade 3+” value [2] was 1.5% and the “Alopecia, % any” value ([3]; any grade) was 39%. The “Anaemia, % any” value ([3]; any grade) was 99.5%, the “Anorexia, % any” value ([3]; any grade) was 17.1% and the “Arthralgia, % any” value ([3]; any grade) was 8%. For the same compound, the “Constipation, % any” value ([3]; any grade) was 18.1%, the “Cough, % any” value ([3]; any grade) was 9.8% and the “Diarrhoea, % any” value ([3]; any grade) was 37%. For the same compound, the “Dysgeusia, % any” value ([3]; any grade) was 18.1%, the “Dyspnoea, % any” value ([3]; any grade) was 9.6% and the “Fatigue, % any” value ([3]; any grade) was 28.9%. The “Febrile neutropenia, % any” value ([3]; any grade) was 8.3%, the “Infection, % any” value ([3]; any grade) was 7.2% and the “Nail changes, % any” value ([3]; any grade) was 9%. For the same compound, the “Nausea, % any” value ([3]; any grade) was 22.7%, the “Neutropenia, % any” value ([3]; any grade) was 89% and the “Pain in extremity, % any” value ([3]; any grade) was 9.8%. The “Peripheral oedema, % any” value ([3]; any grade) was 20.4%, the “Rash/desquamation, % any” value ([3]; any grade) was 5.9% and the “Sensory/motor neuropathy, % any” value ([3]; any grade) was 25.1%. The “Stomatitis/pharyngitis, % any” value ([3]; any grade) was 13.7%, the “Tearing, % any” value ([3]; any grade) was 9.6% and the “Thrombocytopenia, % any” value ([3]; any grade) was 32.6%. The “Vomiting, % any” value ([3]; any grade) was 11.6%, the “Anaemia, % grade 3+” value [3] was 5.5% and the “Anorexia, % grade 3+” value [3] was “.3%”. For the same compound, the “Arthralgia, % grade 3+” value [3] was 1%, the “Constipation, % grade 3+” value [3] was 1% and the “Cough, % grade 3+” value [3] was 0%. For the same compound, the “Diarrhoea, % grade 3+” value [3] was 2.3%, the “Dysgeusia, % grade 3+” value [3] was 0% and the “Dyspnoea, % grade 3+” value [3] was “.3%”. For the same compound, the “Fatigue, % grade 3+” value [3] was “.3%”, the “Febrile neutropenia, % grade 3+” value [3] was 8.3% and the “Infection, % grade 3+” value [3] was 4.1%. The “Nausea, % grade 3+” value [3] was “.8%”, the “Neutropenia, % grade 3+” value [3] was 78.9% and the “Pain in extremity, % grade 3+” value [3] was 1%. For the same compound, the “Peripheral oedema, % grade 3+” value [3] was 1.6%, the “Sensory/motor neuropathy, % grade 3+” value [3] was 2.1% and the “Stomatitis/pharyngitis, % grade 3+” value [3] was “.8%”. The “Tearing, % grade 3+” value [3] was 0%, the “Thrombocytopenia, % grade 3+” value [3] was 1.6% and the “Vomiting, % grade 3+” value [3] was “.8%”. The Increased overall survival ([4]; mCRPC) was 2.4 months, the Increased overall survival ([4]; mCSPC) was 16.8 months and the AUC(0-inf) (clinical) was 3020 ng·h/mL.
For CC(C)=CCC/C(C)=C/C=C/C(C)=C/C=C/C(C)=C/C=C/C=C(C)/C=C/C=C(C)/C=C/C=C(\C)CCC=C(C)C [lycopene], the “Adverse events during lycopene alone lead-in” value [5] was “No participant reported any adverse event”, the “Increase of plasma lycopene concentration from baseline” value ([6]; 30 mg daily synthetic lycopene with docetaxel) was “approximately 1.6 fold” and the “Peak concentration of lycopene in plasma at 150 mg/day compared to 30 and 90 mg/day” value ([6]; Figure 2B) was “did not further increase the peak concentration”. For the same compound, the “Mean lycopene concentration in plasma” value ([6]; after 99 days of treatment) was “.82 ± .49 µmol/L”, the “Mean lycopene concentration in plasma” value ([6]; baseline) was “.48 ± .37 µmol/L” and the “Increase of plasma lycopene during treatment” value ([6]; baseline to 99 days) was 93.4%. For the same compound, the “Change of plasma VEGF-A level over time” value ([7]; lycopene 30 mg/day + docetaxel/ADT) was “tended to decrease”, the “Change of plasma VEGF-A level over time” value ([7]; lycopene 90 mg/day + docetaxel/ADT) was “little change” and the “Change of plasma VEGF-A level over time” value ([7]; lycopene 150 mg/day + docetaxel/ADT) was “to increase”. The “Change of CEC number vs pre-treatment” value ([8]; lycopene 30 mg/day + docetaxel/ADT, all time points) was “decreased”, the “Change of CEC number vs pre-treatment” value ([8]; lycopene 90 mg daily + docetaxel/ADT) was “increased CEC levels at all time points” and the “Change of CEC number vs pre-treatment” value ([8]; lycopene 150 mg daily + docetaxel/ADT) was “significant increase in CECs only on day 57”. For the same compound, the “Change of plasma IGFBP-3 from pretreatment level” value [9] was “no statistically significant differences”, the “Maximum tolerated dose (MTD) of synthetic lycopene” value ([10]; in combination with docetaxel 75 mg/m^2 and ADT) was 150 mg/day and the Dose-limiting toxicity ([10]; in vivo) was “No DLT”. For the same compound, the “Probability of toxicity, dose level 1” value ([10]; male, human, in vivo) was 0, the “Probability of toxicity, dose level 2” value ([10]; male, human, in vivo) was “.009” and the “Probability of toxicity, dose level 3” value ([10]; male, human, in vivo) was “.106”. For the same compound, the “Change of ligand-dependent phosphorylation of IGF1-R(Y1131)” value (from here on “Change … of IGF1-R(Y1131)”) (IGF‐1R; 150 mg lycopene daily, day 78, p = .048) was “borderline decrease”, the “Change … of IGF1-R(Y1131)” value (IGF‐1R; 150 mg lycopene daily, day 99, p = .027) was “significant decrease” and the “Change … of IGF1-R(Y1131)” value (IGF‐1R; 30 or 90 mg/day lycopene, day 15 to 99) was “did not show a consistent change”.
